What was measured:
Format in all cases: cell-based
[1] = system: mesenchymal stem cells derived from human adipose tissue; assay: Test Example 4: cytotoxicity, LDH activity in culture solution
Protocol: Mesenchymal stem cells derived from the human adipose tissue (#C-12977 manufactured by Takara Bio Inc.) were suspended in mesenchymal stem cell growth medium 2 (C-28009 manufactured by Takara Bio Inc.) so as to be 8×10^4 cells/1.8 mL, and seeded on a 6-well cell culture treatment plate (3516 manufactured by Corning Inc.). To the seeded mesenchymal stem cells derived from human adipose tissue was added 200 μL of the compound solution of each of Examples 1 to 8 diluted to 10-fold concentration with the mesenchymal stem cell growth medium 2, or mesenchymal stem cell growth medium alone (control), and after culturing for 24 hours, the culture solution was recovered. The activity of lactate dehydrogenase (LDH) contained in the recovered culture solution was measured by using LDH Cytotoxicity Detection Kit (MK401 manufactured by Takara Bio Inc.) as follows. To a freeze-dried product of Solution A was added 1 mL of purified water to completely dissolve therein, then, 250 μL of Solution A and 11.25 mL of Solution B were mixed to prepare Solution C. To 100 μL of the recovered culture solution was added 100 μL of Solution C, and the mixture was reacted at room temperature for 30 minutes. Absorbance at 490 nm was measured using Enspire (manufactured by PerkinElmer).

[2] = system: mesenchymal stem cells derived from human adipose tissue; assay: Test Example 5: cell proliferation activity (cell viability), CellTiter-Glo; design: scale not given here
Protocol: Mesenchymal stem cells derived from the human adipose tissue (#C-12977 manufactured by Takara Bio Inc.) were suspended in mesenchymal stem cell growth medium 2 (C-28009 manufactured by Takara Bio Inc.) so as to be 2×10^3 cells/90 μL, and seeded on a 96-well cell culture treatment plate (3585 manufactured by Corning Inc.). To the seeded mesenchymal stem cells derived from human adipose tissue was added 10 μL of the compound solution of each of Examples 1 to 8 diluted to 10-fold concentration with the mesenchymal stem cell growth medium 2, or mesenchymal stem cell growth medium alone (control), and the cells were cultured for 24 hours. Subsequently, the number of living cells was measured as follows using CellTiter-Glo (Registered Trademark) Luminescent Cell Viability Assay (G7570 manufactured by Promega). 100 μL well of a solution in which CellTiter-Glo (trademark) Substrate was dissolved in CellTiter-Glo (trademark) Buffer was added to each well of the above-mentioned 96-well cell culture treatment plate, and then, 100 μL thereof was transferred to 96-well cell culture treatment white plate (356701 manufactured by Corning Inc.), and the luminescence was measured with Enspire (manufactured by PerkinElmer).

[3] = system: human bone marrow-derived mesenchymal stem cells; assay: Test Example 7: promotion of secretion of extracellular vesicles, PS Capture exosome ELISA (anti-CD63); details: 24 hours, compound untreated group (control) set to 1
Protocol: (§1) Human bone marrow-derived mesenchymal stem cells or human umbilical cord matrix-derived mesenchymal stem cells (#C-12974, #C-12971 manufactured by Takara Bio Inc.) were suspended in mesenchymal stem cell growth medium 2 (C-28009 manufactured by Takara Bio Inc.) so as to be 8×10^4 cells/1.8 mL, and seeded on a 6-well cell culture treatment plate (3516 manufactured by Corning Inc.). To the seeded mesenchymal stem cells was added each 200 μL of the compounds of Examples 1 to 8 diluted to 10-fold concentration with the mesenchymal stem cell growth medium 2, and after culturing for 24 hours, the culture solution was recovered. Subsequently, the recovered culture solution was centrifuged under 20,000×g at 4° C. for 60 minutes to prepare a culture solution from which cell fragments and Large Extracellular Vesicles were removed. For the detection of extracellular vesicles, PS Capture (trademark) exosome ELISA kit (anti-mouse IgG POD) (#297-79201 manufactured by FUJIFILM Wako Pure Chemical Corporation) was used.
(§2) To Reaction/Washing Buffer (1×) prepared by diluting Reaction/Washing Buffer (10×) 10-fold with purified water was added 1/100 amount of Exosome Binding Enhancer (100×) to prepare a Reaction/Washing Buffer (1×). Each culture solution was diluted 5-fold with the Reaction/Washing Buffer (1×). After washing Exosome Capture 96-well plate with 300 μL of the Reaction/Washing Buffer (1×) three times, 5-fold-diluted each extracellular vesicle solution, or the mesenchymal stem cell growth medium 2 in which no cell was cultured (negative control) was added to each well, and the mixture was reacted at room temperature for 2 hours while shaking with a microplate shaker. After completion of the reaction, the reaction mixture was discarded, and after washing each well with 300 μL of the Reaction/Washing Buffer (1×) three times, 100 μL of Primary Antibody Anti-CD63 (×100) diluted to 1,000-fold with the Reaction/Washing Buffer (1×) was added thereto, and the mixture were reacted at room temperature for 1 hour while shaking with a microplate shaker. After completion of the reaction, the reaction mixture was discarded, and after washing each well with 300 μL of the Reaction/Washing Buffer (1×) three times, 100 μL of Secondary Antibody HRP-conjugated Anti-mouse IgG (100×) diluted to 1,000-fold with the Reaction/Washing Buffer (1×) was added thereto, and the mixture were reacted at room temperature for 1 hour while shaking with a microplate shaker. After completion of the reaction, the reaction mixture was discarded, and after washing each well with 300 μL of the Reaction/Washing Buffer (1×) five times, 100 μL of TMB Solution was added, and after shaking with a microplate shaker for 1 minutes, the mixture was reacted at room temperature for 30 minutes. After completion of the reaction, 100 μL of Stop Solution was added thereto, and after shaking with a microplate shaker for 5 seconds, the absorbance at 450 nm and 620 nm was measured with Enspire (manufactured by PerkinElmer). Based on the obtained measured values, a value subtracting the absorbance at 620 nm from the absorbance at 450 nm was calculated and a relative value when the compound untreated group (control) was set to 1 was calculated.

[4] = system: human umbilical cord matrix-derived mesenchymal stem cells; assay: as above; details: 24 hours, compound untreated group (control) set to 1
Protocol: as §1, §2

[5] = Table 4, 2 μM, 24 hours, LDH, absorbance at 490 nm
[6] = Table 6, 2 μM, 24 hours, number of living cells, CellTiter-Glo
[7] = Table 4, 50 nM, 24 hours, LDH, absorbance at 490 nm
[8] = Table 6, 50 nM, 24 hours, number of living cells, CellTiter-Glo

SMILES | Absorbance [1, 5] | Luminescence [2, 6] | Relative value of difference of absorbance ([3]; 2 μM) | Relative value of difference of absorbance ([4]; 2 μM) | Relative value of difference of absorbance ([3]; 20 nM) | Relative value of difference of absorbance ([4]; 20 nM) | other results
CC(=O)O.Cc1cc2c(C(C)C)c(O)c(O)c(C=O)c2c(O)c1-c1c(C)cc2c(C(C)C)c(O)c(O)c(C=O)c2c1O (racemic) [Example 1, (±)-Gossypol Acetate] | 0.73 | 0.96 | 2.46 | 1.97 | – | – | Absorbance ([1]; Table 3, 2 μM, 24 hours, LDH, absorbance at 490 nm): 1.08; Luminescence ([2]; Table 5, 2 μM, 24 hours, number of living cells, CellTiter-Glo): 0.87
CC(=O)O.Cc1cc2c(C(C)C)c(O)c(O)c(C=O)c2c(O)c1-c1c(C)cc2c(C(C)C)c(O)c(O)c(C=O)c2c1O [Example 2, (S)-Gossypol Acetate] | 1.02 | 1.00 | 2.14 | 1.57 | – | – | –
Cc1cc2c(C(C)C)c(O)c(O)cc2c(O)c1-c1c(C)cc2c(C(C)C)c(O)c(O)cc2c1O [Example 3, (+)-Apogossypol] | – | – | 1.53 | 1.31 | – | – | Absorbance ([1]; human, 24 h, 2 μM): 1.02; Luminescence ([2]; human, 24 h, 2 μM): 0.82
Cc1cc2c(C(C)C)c(O)c(O)c(C=O)c2c(O)c1-c1c(C)cc2c(C(C)C)c(O)c(O)c(C=O)c2c1O [Example 4, (R)-(−)-Gossypol] | 1.20 | – | 2.39 | 1.95 | – | – | Luminescence ([2]; human, 24 h, 2 μM): 0.85
COC1=CC(c2cc3ccccc3[nH]2)=N/C1=C\c1[nH]c(C)cc1C.CS(=O)(=O)O [Example 5, Obatoclax Mesylate] | – | – | – | – | 1.81 | 1.65 | Absorbance ([1]; Table 3, 50 nM, 24 hours, LDH, absorbance at 490 nm): 1.14; Luminescence ([2]; Table 5, 50 nM, 24 hours, number of living cells, CellTiter-Glo): 0.75
CCCCCC1=C/C(=C\c2[nH]c(-c3ccc[nH]3)cc2OC)N=C1C.Cl [Example 6, Prodigiosin Hydrochloride] | – | – | – | – | 1.31 | 1.48 | Absorbance [1, 7]: 1.02; Luminescence [2, 8]: 0.76
CCCCCCCCCCCc1ccc(/C=C2\N=C(c3ccc[nH]3)C=C2OC)[nH]1.Cl [Example 7, Undecylprodigiosin Hydrochloride] | – | – | – | – | 2.88 | 1.74 | Absorbance [1, 7]: 1.02; Luminescence [2, 8]: 0.74
Cc1cc2c(C(=O)NC[C@H](C)c3ccccc3)c(O)c(O)cc2c(O)c1-c1c(C)cc2c(C(=O)NC[C@H](C)c3ccccc3)c(O)c(O)cc2c1O [Example 8, Sabutoclax] | 1.18 | 0.95 | 1.39 | 1.44 | – | – | –

Source: patent publication US20220162561A1, “COMPOSITION FOR PROMOTING SECRETION OF EXTRACELLULAR VESICLES” (priority 2019, published 2022)
